Legend:
SIRT1 [1] = biological target: T1, SIRT1 (Homo sapiens, UniProt Q96EB6); assay: TAMRA based mass spectrometry assay of SIRT1 activity; format: biochemical; settings: TAMRA assay; for TAMRA EC1.5 (μM): concentration giving 150% activation of SIRT1; for Emax: percent maximum fold activation, read-out: TAMRA % Fold Act
T1 sequence (Q96EB6 1-747): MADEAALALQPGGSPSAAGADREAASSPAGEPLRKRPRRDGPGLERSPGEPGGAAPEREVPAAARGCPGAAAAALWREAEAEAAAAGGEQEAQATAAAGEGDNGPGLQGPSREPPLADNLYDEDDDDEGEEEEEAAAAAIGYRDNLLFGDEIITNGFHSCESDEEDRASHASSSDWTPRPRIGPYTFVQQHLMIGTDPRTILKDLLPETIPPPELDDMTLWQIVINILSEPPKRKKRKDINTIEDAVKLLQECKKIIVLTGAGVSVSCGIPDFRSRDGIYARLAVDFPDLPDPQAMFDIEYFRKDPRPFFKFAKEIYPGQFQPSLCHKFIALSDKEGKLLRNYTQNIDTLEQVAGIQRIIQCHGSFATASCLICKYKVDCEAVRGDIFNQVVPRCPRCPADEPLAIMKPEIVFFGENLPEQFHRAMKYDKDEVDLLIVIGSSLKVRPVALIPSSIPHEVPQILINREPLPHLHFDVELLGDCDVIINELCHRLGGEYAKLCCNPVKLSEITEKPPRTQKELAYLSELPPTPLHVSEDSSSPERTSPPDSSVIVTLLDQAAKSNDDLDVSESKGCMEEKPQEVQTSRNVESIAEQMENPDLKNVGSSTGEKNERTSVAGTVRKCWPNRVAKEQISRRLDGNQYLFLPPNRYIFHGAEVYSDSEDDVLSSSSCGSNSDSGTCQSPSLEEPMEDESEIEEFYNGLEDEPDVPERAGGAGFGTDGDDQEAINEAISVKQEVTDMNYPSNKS
Procedure, shortened: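 Recombinant N-terminal His-tagged human SIRT1 (10 nM, E. coli) incubated 25 min at 25 °C with 0.5 μM 5TMR-labelled p53-derived acetyl-peptide and 120 μM βNAD+ in Tris-acetate pH 8 buffer with DTT and 0.05% BSA, compound at varying concentrations. Stopped with formic acid; deacetylated peptide or OAADPR measured by mass spectrometry relative to DMSO controls.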

SIRT1 [2] = biological target: T1, SIRT1; assay: Trp mass spectrometry assay of SIRT1 activity; format: biochemical; settings: Trp assay; for Trp EC1.5 (μM): concentration giving 150% activation of SIRT1; for Emax: percent maximum fold activation, read-out: Trp % Fold Act
Procedure, shortened: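 His-tagged SIRT1 expressed in E. coli BL21(DE3), 10 nM, incubated 25 min at 25° C. with 0.5 μM Ac-RHKK(Ac)W-NH2 peptide and 120 μM βNAD+ in 50 mM HEPES pH 7.5, […], 1 mM DTT, 0.05% BSA; formic acid stop. OAADPR or deacetylated peptide measured by mass spectrometry; EC1.5 and percent maximum activation versus DMSO control.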

TAMRA EC1.5 (μM) (SIRT1 [1])	Emax (SIRT1 [1]) [%]	Trp EC1.5 (μM) (SIRT1 [2])	Emax (SIRT1 [2]) [%]	SMILES
B (EC1.5 1-25 μM)	< 350	C (EC1.5>25 μM)	< 350	COc1ccc(NC(=O)c2c(C)nc3ccc(-c4ccccc4Cl)nn23)nn1 [Compound 743]
A (EC1.5<1 μM)	≥ 350	C (EC1.5>25 μM)	< 350	Cc1cccnc1C(=O)Nc1cnn2ccc(-c3ccccc3C(F)(F)F)nc12 [Compound 746]
A (EC1.5<1 μM)	≥ 350	B (EC1.5 1-25 μM)	< 350	O=C(Nc1cnn2ccc(-c3ccccc3C(F)(F)F)nc12)c1cccc(-n2cnnc2)n1 [Compound 748]
A (EC1.5<1 μM)	≥ 350	B (EC1.5 1-25 μM)	< 350	O=C(Nc1cnn2ccc(-c3ccccc3C(F)(F)F)nc12)c1ncc(F)cc1F [Compound 749]
B (EC1.5 1-25 μM)	≥ 350	B (EC1.5 1-25 μM)	< 350	Cc1nc(C(=O)Nc2cnn3ccc(-c4ccccc4OC(F)(F)F)nc23)cs1 [Compound 752]
A (EC1.5<1 μM)	≥ 350	B (EC1.5 1-25 μM)	< 350	O=C(Nc1cnn2ccc(-c3ccccc3OC(F)(F)F)nc12)c1ncccc1F [Compound 754]
A (EC1.5<1 μM)	≥ 350	B (EC1.5 1-25 μM)	< 350	O=C(Nc1cnn2ccc(-c3ccccc3OC(F)(F)F)nc12)c1ncc(F)cc1F [Compound 755]
C (EC1.5>25 μM)	< 350	A (EC1.5<1 μM)	< 350	COc1ccc(NC(=O)c2c(C)nc3ccc(-c4cccc(F)c4)nn23)nn1 [Compound 761]
A (EC1.5<1 μM)	< 350	A (EC1.5<1 μM)	< 350	Cc1cccc(-c2ccc3nc(C)c(C(=O)Nc4cccnn4)n3n2)c1 [Compound 766]
B (EC1.5 1-25 μM)	< 350	A (EC1.5<1 μM)	≥ 350	Cc1nc2ccc(-c3cccc(F)c3)nn2c1C(=O)Nc1cccnn1 [Compound 767]
B (EC1.5 1-25 μM)	≥ 350	C (EC1.5>25 μM)	< 350	O=C(Nc1cnn2ccc(-c3ccccc3OC(F)(F)F)nc12)c1nc(C(F)(F)F)cs1 [Compound 770]
B (EC1.5 1-25 μM)	≥ 350	B (EC1.5 1-25 μM)	≥ 350	Cc1nc2ccc(-c3cccc(OC[C@H](O)CO)c3)nn2c1C(=O)Nc1ccccn1 [Compound 772, (R)-6-(3-(2,3-dihydroxypropoxy)phenyl)-2-methyl-N-(pyridin-2-yl)imidazo[1,2-b]pyridazine-3-carboxamide]
A (EC1.5<1 μM)	≥ 350	A (EC1.5<1 μM)	≥ 350	Cc1nc2c(OC[C@H](O)CO)cc(-c3ccccc3C(F)(F)F)nn2c1C(=O)Nc1cccnn1 [Compound 773, (R)-8-(2,3-dihydroxypropoxy)-2-methyl-N-(pyridazin-3-yl)-6-(2-(trifluoromethyl)phenyl)imidazo[1,2-b]pyridazine-3-carboxamide]
B (EC1.5 1-25 μM)	≥ 350	C (EC1.5>25 μM)	< 350	O=C(Nc1cnn2ccc(-c3ccccc3OC(F)(F)F)nc12)c1cc(O)ncn1 [Compound 776]
A (EC1.5<1 μM)	≥ 350	A (EC1.5<1 μM)	< 350	COc1cc(NC(=O)c2c(C)nn3ccc(-c4ccccc4C(F)(F)F)nc23)ncn1 [Compound 778]
A (EC1.5<1 μM)	≥ 350	A (EC1.5<1 μM)	≥ 350	O=C(Nc1ccnc(O)c1)c1cnn2ccc(-c3ccccc3OC(F)(F)F)nc12 [Compound 779]
A (EC1.5<1 μM)	≥ 350	C (EC1.5>25 μM)	< 350	Cc1cnc(C(=O)Nc2cnn3ccc(-c4ccccc4OC(F)(F)F)nc23)s1 [Compound 782]

TAMRA EC1.5 (μM) (SIRT1 [1])	Emax (SIRT1 [1]) [%]	Trp EC1.5 (μM) (SIRT1 [2])	Emax (SIRT1 [2]) [%]	SMILES
A (EC1.5<1 μM)	≥ 350	A (EC1.5<1 μM)	≥ 350	Cc1nn2ccc(-c3ccccc3C(F)(F)F)nc2c1C(=O)Nc1ccnc(O)c1 [Compound 784]
B (EC1.5 1-25 μM)	≥ 350	C (EC1.5>25 μM)	< 350	O=C(Nc1cnn2ccc(-c3ccccc3OC(F)(F)F)nc12)c1cscn1 [Compound 785]
B (EC1.5 1-25 μM)	≥ 350	B (EC1.5 1-25 μM)	≥ 350	Cc1nn2ccc(-c3ccccc3C(F)(F)F)nc2c1C(=O)Nc1ncc(F)cc1F [Compound 788]
A (EC1.5<1 μM)	≥ 350	A (EC1.5<1 μM)	≥ 350	Cc1cccc(NC(=O)c2c(C)nc3ccc(-c4cccc(OC[C@H](O)CO)c4)nn23)n1 [Compound 790]
A (EC1.5<1 μM)	≥ 350	B (EC1.5 1-25 μM)	< 350	Cc1cc(C)nc(NC(=O)c2c(C)nc3ccc(-c4cccc(OC[C@H](O)CO)c4)nn23)c1 [Compound 791]
A (EC1.5<1 μM)	≥ 350	B (EC1.5 1-25 μM)	< 350	Cc1nccc(C(=O)Nc2cnn3ccc(-c4ccccc4C(F)(F)F)nc23)n1 [Compound 794]
A (EC1.5<1 μM)	≥ 350	B (EC1.5 1-25 μM)	< 350	CC(C)c1nccc(C(=O)Nc2cnn3ccc(-c4ccccc4C(F)(F)F)nc23)n1 [Compound 796]
A (EC1.5<1 μM)	≥ 350	A (EC1.5<1 μM)	≥ 350	COc1nccc(NC(=O)c2cnn3ccc(-c4ccccc4OC(F)(F)F)nc23)n1 [Compound 797]
B (EC1.5 1-25 μM)	≥ 350	C (EC1.5>25 μM)	< 350	Cc1cnc(C(=O)Nc2cnn3ccc(-c4ccccc4C(F)(F)F)nc23)cn1 [Compound 800]
B (EC1.5 1-25 μM)	≥ 350	C (EC1.5>25 μM)	< 350	O=C(Nc1cnn2ccc(-c3ccccc3C(F)(F)F)nc12)c1cscn1 [Compound 802]
B (EC1.5 1-25 μM)	≥ 350	C (EC1.5>25 μM)	< 350	Cc1scnc1C(=O)Nc1cnn2ccc(-c3ccccc3C(F)(F)F)nc12 [Compound 803]
A (EC1.5<1 μM)	≥ 350	B (EC1.5 1-25 μM)	≥ 350	Cc1cc(C)nc(NC(=O)c2cnn3ccc(-c4ccccc4C(F)(F)F)nc23)n1 [Compound 806]
A (EC1.5<1 μM)	≥ 350	B (EC1.5 1-25 μM)	< 350	CC(C)c1csc(C(=O)Nc2cnn3ccc(-c4ccccc4C(F)(F)F)nc23)n1 [Compound 808]
A (EC1.5<1 μM)	≥ 350	C (EC1.5>25 μM)	< 350	O=C(Nc1cnn2ccc(-c3ccccc3C(F)(F)F)nc12)c1nc(C(F)(F)F)cs1 [Compound 809]
A (EC1.5<1 μM)	≥ 350	A (EC1.5<1 μM)	≥ 350	O=C(Nc1ccccn1)c1cnc2ccc(-c3ccccc3OC[C@H](O)CO)nn12 [Compound 812]
B (EC1.5 1-25 μM)	≥ 350	B (EC1.5 1-25 μM)	< 350	O=C(Nc1ccc(F)cn1)c1cnc2ccc(-c3ccccc3OC[C@H](O)CO)nn12 [Compound 814]
